# Values of other authors as cited in US20070166273A1, “Skin treatment educational kit” (priority 2006, published 2007).
# Experiments:
# [1] = test system: CD-1 mice; settings: 91-week dermal
# [2] = test system: mice; settings: 0.025 mg/kg/day topically to mice (0.1 times max human systemic dose)
# [3] = test system: hairless albino mice; settings: concurrent exposure
# [4] = test system: pigmented mice; settings: 0.05% tretinoin
# [5] = Ames assay
# [6] = test system: mouse; settings: in vivo mouse micronucleus assay
# [7] = test system: rats; settings: dermal
# [8] = test system: rats; settings: oral, rats (16 times the human topical dose)
# [9] = test system: rats; settings: oral
# [10] = test system: mice; settings: oral
# [11] = test system: hamsters; settings: oral
# [12] = test system: subhuman primates; settings: oral
# [13] = test system: Wistar rats; settings: orally or topically, Wistar rats (8 times max human systemic dose)
# [14] = test system: Wistar rats
# [15] = test system: New Zealand White rabbits; settings: New Zealand White rabbits (3.3 times max human systemic dose)
# [16] = dermally applied, 1.0 mg/kg/day (8 times max human systemic dose)
# [17] = test system: rabbits; settings: 0.5 mg/kg/day (8 times max human systemic dose)
# [18] = test system: rats; settings: oral, 2.5 mg/kg/day (20 times max human systemic dose)
# [19] = test system: human
# [20] = test system: cynomolgus monkey
structure (smiles),measurement,setting,value
"CC1=C(/C=C/C(C)=C/C=C/C(C)=C/C(=O)O)C(C)(C)CCC1 [tretinoin, all-trans-retinoic acid]",cutaneous squamous cell carcinomas and papillomas in the treatment area,"[1]; 0.017% and 0.035% formulations (max systemic 0.5 and 1.0 mg/kg/day), female CD-1 mice",observed in some female mice
same,liver tumors,"[1]; 0.017% and 0.035% formulations, male CD-1 mice",dose-related incidence
same,carcinogenic potential,[2],no evidence of carcinogenic potential
same,tumorigenic potential of carcinogenic doses of UVB and UVA light,[3],may enhance the tumorigenic potential
same,enhancement of photocarcinogenesis,[4],dark pigmentation did not overcome the enhancement of photocarcinogenesis
same,mutagenic potential,[5],negative
same,mutagenic potential,[6],negative
same,sperm count and motility,"[7]; 0.5 mg/kg/day, rats (4 times max human systemic dose)",slight (not statistically significant) decreases
same,number and percent of nonviable embryos,[7]; females treated with 0.25 mg/kg/day and above (2 times max human systemic dose),slight (not statistically significant) increases
same,dose with decreased survival of neonates and growth retardation,[8],> 2 mg/kg/day
same,teratogenicity,[9],teratogenic
same,teratogenicity,[10],teratogenic
same,teratogenicity,[11],teratogenic
same,teratogenicity,[12],teratogenic
same,teratogenic and fetotoxic dose,[13],greater than 1 mg/kg/day
same,anomalies: humerus bent,[14]; 10 mg/kg/day topically applied,6%
same,anomalies: humerus short,[14]; 10 mg/kg/day topically applied,13%
same,anomalies: os parietal incompletely ossified,[14]; 10 mg/kg/day topically applied,14%
same,dose with evidence for teratogenicity (shortened or kinked tail),"[14]; topical, Wistar rats (8 times max human systemic dose)",greater than 1 mg/kg/day
same,dose with increased incidence of domed head and hydrocephaly,[15],greater than 0.2 mg/kg/day
same,fetotoxicity and teratogenicity,[16],"may be fetotoxic, but not overly teratogenic"
same,fetotoxicity and teratogenicity,[17]; dermally applied,"may be fetotoxic, but not overly teratogenic"
same,fetotoxicity,[17]; topical,fetotoxic
same,fetotoxicity,[18],"fetotoxic, resulting in skeletal variations and increased intrauterine death"
same,reports describing holoprosencephaly,[19]; of the thirty human cases,five
same,human cases of temporally associated congenital malformations,[19]; two decades of clinical use,Thirty
same,dose with fetal malformations,[20]; cynomolgus monkey,≥ 10 mg/kg/day
same,embryolethality and abortion,[20]; cynomolgus monkey,dose-related increase
same,dose at which no fetal malformations were observed,[20]; cynomolgus monkey (83 times max human systemic dose),5 mg/kg/day
same,skeletal variations,"[20]; cynomolgus monkey, all doses",increased skeletal variations were observed at all doses
